The results in this text go back to patent US5053006A, “Method for the permanent occlusion of arteries” (priority 1990, dated 1991).

This series relates to corneal blood vessels. Format: in vivo, New Zealand albino rabbit. The source says:
Both corneal and limbal epithelia, along with the conjunctival epithelium 2-3 mm beyond the limbus, were removed from New Zealand albino rabbit eyes by n-heptanol debridement and surgical scraping (Huang et al., Ophthalmology, 95:228-235, 1988, the disclosure of which is hereby incorporated by reference and relied upon). The denuded corneas were healed by the remaining conjunctival epithelium within 9 to 12 days, of which 65% became extensively vascularized two to three weeks after healing. Sixteen corneas with persistent neovascularization of 20 months duration were subjected to photothrombotic treatment.
Occlusion of corneal blood vessels was achieved by intravenous injection of the rose bengal solution at a dosage of 40 mg/kg body weight followed by irradiation of the blood vessels with an argon green laser beam (514.5 nm in wavelength) set at a power of 130 mW, beam spot size of 63 μm in diameter, and duration of 0.2 second. During the irradiation, the corneal surface was rinsed with a balanced salt solution maintained at 37° C. to ensure the efficacy of photothrombosis. The laser beam was applied to the limbus at the arborization point of each feeder vessel. In 12 corneas, the blood vessels on the upper half of the cornea were photothrombosed and those on the lower half were left untreated and used as an internal control. In the remaining four corneas, the blood vessels on the entire cornea were treated. Each blood vessel was occluded within 10 consecutive shots of irradiation. For all corneas, the treatment was completed within 30 minutes after initial injection of rose bengal solution. After laser irradiation, topical antibiotics and steroids were applied for two days. This treatment was similar to that described in Watson et al., Lasers Surg. Med., 7:127, 1987.
External ocular examinations were performed to identify changes on the ocular surface before and after photothrombosis. Surface smoothness was examined by routine slitlamp biomicroscopy. External photographs were taken to document corneal clarity and regression of the vessels.
Occlusion of the corneal blood vessels and the duration of occlusion were further studied by routine corneal fluorescein angiography using an intravenous injection of 1 ml of 10 mg/ml of sodium fluorescein. Photographs and angiograms were taken with a Zeiss surgical microscope. Baseline angiography was performed two to three days before photothrombosis to avoid possible photosensitizing effects from the fluorescein used for angiography. Follow-up angiograms were taken on the scheduled dates to document the occlusive effect and its duration. Late phase fluorescein angiograms (5 minutes after injection) were chosen for comparisons. After occlusion was confirmed by angiography, the rabbits were sacrificed on the prescheduled date and corneal buttons were obtained and subjected to epithelial differentiation studies. The total follow-up duration was 18 weeks.

`O=C([O-])c1c(Cl)c(Cl)c(Cl)c(Cl)c1-c1c2cc(I)c(=O)c(I)c-2oc2c(I)c([O-])c(I)cc12.[Na+].[Na+]` [rose bengal]: the “consecutive shots to occlude each blood vessel” value (40 mg/kg i.v., 130 mW, 0.2 second) is reported as at most 10 shots. The “dye leakage in angiograms, treated areas” value (follow-up angiograms) is “free of dye leakage”. Moreover, for the setting “four days after treatment”, the “regression of occluded corneal blood vessels” value is “gradually regressed”. Under “rabbit, in vivo”, the epithelial breakdown result is “No epithelial breakdown was observed”, the “persistence of hemorrhagic spots” value is given as “two to three” and the “retention of rose bengal in corneas” value is on record as “all 16 corneas were clear of retained rose bengal”. In addition, the “occlusion of treated vessels” value (two corneas, 18 weeks) was “all treated vessels remained occluded without recanalization, and no new vessel growth elsewhere was observed”.
